“Also recorded” adds a separate entry of the source. Where two headings read alike, the source gives them in different places. Each block holds one compound with its values, some of them ahead of it.
Assays:
[1] = tested on: vestibular ganglion neurons; assay: Patch-clamp (current-clamp) recording of depolarization-induced firing volley and membrane potential in cultured vestibular ganglion neurons; format: cell-based, Wistar rats; details: for IC50: cultured rat vestibular neurons; for inhibition at 0.1 µM: 100 nM (0.1 μM); for variation of membrane potentials (qualitative): FIG. 4, high concentrations; for reversibility of the firing inhibition during rinse with control medium: perfusion of control medium after drug; for depolarization of the neurons: 5 mM
Method: Cell culture: Vestibular ganglion neurons were explanted aseptically from 2 to 6 days-old Wistar rats (Centre d'Elevage Janvier, Le Genest-Saint-Isle, France). All procedures were carried out in accordance to the French/European Communities Council Directive 86/609/EEC. The brainstem was hemi-sectioned and the eighth nerve was followed up to the level of the otocyst and cut just rostral to it.
The vestibular ganglia were excised, placed in Leibovitz medium (L15, Invitrogen, Cergy Pontoise, France), and dissociated by enzymatically (collagenase 0.75 mg/ml, dispase 1 mg/ml and dnase 0.75 mg/ml, 15 min at 25° C.). Enzymes were washed with Tyrode solution without Ca^2+ and Mg^2+, and the ganglion neurons were gently dissociated in culture medium with a pipette. The neurons were plated onto culture dishes previously coated with 5 μg/ml poly-L-ornithine, 10 μg/ml laminin and subsequently filled with 0.5 ml of a 1:1 mixture of Dulbecco's modified eagle medium and Ham's F-12 medium (Invitrogen) supplemented with 2% N2 nutrient glucose (5 g/l), glutamine (1.5 mM), sodium bicarbonate (1.1 g/l), HEPES buffer (15 mM, pH 7.4), AraC 2 μM, brain-derived neurotrophic factor 10 μg/ml and 1% penicillin/streptomycin. The low density cultures were then maintained at 37° C. in 5% CO2 for 7 to 8 days prior patch-clamp experiments.
Patch-clamp recordings: Whole-cell (current-clamp configuration) recording of responses were obtained using an Axopatch 200B amplifier (Axon Instruments; Molecular Devices Corp., Sunnyvale, Calif., USA). The extracellular solution contained (in mM): NaCl 135, HEPES 10, glucose 10, MgCl2 1, KCl 5, and CaCl2 4, pH 7.35 (with NaOH). Recording pipettes (2-3 MΩ) were drawn from microhematocrit tubes (Modulohm I/S Herlev, Denmark) and filled with the following solution (in mM): KCl 135, HEPES 10,glucose 10, NaCl5, EGTA 5, Mg-ATP3, GTP-Na 1, pH 7.35 (with KOH). The osmolarity of all solutions was set to 300 mOsm/I^−1. Experimental parameters and data acquisition were controlled with a PC computer and a Tecmar Labmaster analogue interface (Axon instruments, CA). Voltage transients were recorded from neurons presenting resting potentials lying between −45 and −65 mV. Trains of action potentials (APs) were elicited using 1 s, 200 pA depolarizing pulses applied every 6.5 s. Current signals were filtered at 10 KHz, digitized and stored using pCLAMP software (v 10.2, Axon instruments).
Drug application : The control and test solutions were applied using a multiple capillary perfusion system (flow rate 500 μl/min). After each application of the tested drug, the cells were washed with control buffer.
Data analysis and statistical methods : The results are expressed as means±S.E.M. The number of sample size (n) given is the number of neurons tested. Variations of the membrane potential and the number of APs were analysed using pCLAMP software (v10.2, Axon instruments). Drug concentration-effect relationships were fitted with a Hill equation of the form I(x)=A*xn/(IC50n+xn).

[2] = target: T1, human H3 receptor (Homo sapiens, UniProt Q9Y5N1); details: radioligand, transfected cell membranes; cited from earlier work
T1 construct: expressed in transfected cells; host or cells: SK-N-MC or HEK293 T

[3] = tested on: peripheral vestibular receptors isolated from axolotl; details: cited from earlier work
[4] = Neuron, dose-response fitted with Hill equation, read-out: IC50 of inhibition of the firing volley induced by standard depolarization
[5] = Rattus norvegicus, Neuron, tonic discharge

T1 sequence (Q9Y5N1 whole entry): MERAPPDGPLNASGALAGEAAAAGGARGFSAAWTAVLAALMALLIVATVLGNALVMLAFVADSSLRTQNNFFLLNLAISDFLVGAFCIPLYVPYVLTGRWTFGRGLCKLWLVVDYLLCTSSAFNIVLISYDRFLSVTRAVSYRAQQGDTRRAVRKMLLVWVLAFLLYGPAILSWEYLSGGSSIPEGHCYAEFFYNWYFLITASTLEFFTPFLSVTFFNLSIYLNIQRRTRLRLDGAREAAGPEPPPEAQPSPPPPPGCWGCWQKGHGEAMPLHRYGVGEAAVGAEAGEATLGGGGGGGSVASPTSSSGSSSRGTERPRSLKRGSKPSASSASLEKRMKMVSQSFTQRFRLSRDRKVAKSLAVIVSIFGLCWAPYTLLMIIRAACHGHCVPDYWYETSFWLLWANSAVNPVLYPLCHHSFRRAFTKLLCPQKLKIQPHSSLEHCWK

- IC50 [1, 4]: 10 µM
Compound: CN1CCN(C(=O)c2cc3cc(Cl)ccc3[nH]2)CC1 [JNJ 7777120, 1-[(5-chloro-1H-indol-2-yl)carbonyl]-4-methylpiperazine]
- inhibition at 0.1 µM [1, 5]: 3%
- inhibition at 1 µM [1, 5]: 29%
- inhibition at 10 µM [1, 5]: 41%
- membrane depolarisation ([1]; high concentration application (1 mM)): did not induce membrane depolarisation

Compound: CN1CCN(C(=O)c2nc3cc(Cl)ccc3[nH]2)CC1 [VUF 6002, 1-[(5-chloro-1H-benzimidazol-2-yl)carbonyl]-4-methylpiperazine]
- action potentials intrinsic properties (spike amplitude, time to peak, rise and decay time constants) [1]: not affected
- membrane hyperpolarization ([1]; 100 μM): about −3 mV
- inhibition of the firing ([1]; 100 μM, tonic discharge): 90%
- effect on firing, phasic discharge pattern ([1]; 1 mM, neurons with phasic discharge, n=6): completely abolished the firing
- variation of membrane potentials (qualitative) [1]: did not induce membrane variations
- IC50 [1, 4]: 5.8 µM
- inhibition at 0.1 µM [1, 5]: 20%
- inhibition at 1 µM [1, 5]: 37%
- inhibition at 10 µM [1, 5]: 55%
- inhibition at 100 µM ([1]; Rattus norvegicus, Neuron, 100 μM, tonic discharge): 91%
- concentration of maximum inhibition of the firing ([1]; dose-response between 1 nM and 1 mM): around 100 μM
- reversibility of the firing inhibition during rinse with control medium [1]: reversed during rinse with control medium; also recorded: totally reversed

Compound: CNCCc1cnc[nH]1 [[^3H]N-a-methyl histamine]
- Kd [2]: 0.001 µM

- IC50 ([1]; dose-response relationship, read-out: IC50 of inhibition of the discharge volley): 2200 µM
Compound: CNCCc1ccccn1.Cl.Cl [betahistine, betahistine dihydrochloride]
- concentration of maximum effect on afferent discharge [3]: around 10 mM
- IC50 ([3]; read-out: IC50 of inhibition of the afferent discharge): 800 µM
- effect on membrane potential ([1]; 2 mM application): not affected
- depolarization of the neurons ([1]; dihydrochloride): about 15 mV
- depolarization of the neurons ([1]; listed as BH, dihydrochloride): 14.3±4.7 mV
- variation of membrane potentials (qualitative) ([1]; dihydrochloride): pronounced depolarisation of the neurons
- variation of membrane potentials (qualitative) ([1]; listed as betahistidine, dihydrochloride): strong depolarisations at high concentrations
- reversibility of the firing inhibition during rinse with control medium ([1]; dihydrochloride): rapidly reversed during rinse with control medium
- reversibility of the firing inhibition during rinse with control medium ([1]; listed as BH, dihydrochloride): rapidly abolished
- concentration of maximum inhibition of the discharge volley ([1]; standard depolarization stimulation): around 10 mM

Compound: O=C(O)/C=C\C(=O)O.S=C(NC1CCCCC1)N1CCC(c2c[nH]cn2)CC1 [thioperamide, N-cyclohexyl-4-(1H-imidazol-4-yl)-1-piperidinecarbothioamide maleate]
- membrane depolarisation at low concentration ([1]; 0.01 to 10 μM): without depolarizing the neurons
- variation of membrane potentials (qualitative) ([1]; maleate): strong depolarisations at high concentrations; also recorded: strong membrane depolarisations; also recorded: pronounced depolarisation of the neurons
- IC50 [1, 4]: 100 µM
- inhibition at 0.1 µM [1, 5]: 10%
- inhibition at 10 µM [1, 5]: 24%
- inhibition at 500 µM ([1]; Rattus norvegicus, Neuron, 500 μM, read-out: inhibition of the firing (blocked activity)): 87%
- reversibility of the firing inhibition during rinse with control medium [1]: only slightly reversible
